Measurements published in patent US12097241B2, “Methods of treating kidney failure, and/or improving or stablizing renal function using modified relaxin polypeptides” (BRISTOL-MYERS SQUIBB COMPANY, priority 2017, dated 2024).
pEC50: −log10 of the molar value.

What follows are compounds tested against T1, human RXFP1 receptor (Homo sapiens, UniProt Q9HBX9) (assay: Intracellular cAMP accumulation assay).
T1 construct: expressed in transfected cells
T1 sequence (Q9HBX9 1-757): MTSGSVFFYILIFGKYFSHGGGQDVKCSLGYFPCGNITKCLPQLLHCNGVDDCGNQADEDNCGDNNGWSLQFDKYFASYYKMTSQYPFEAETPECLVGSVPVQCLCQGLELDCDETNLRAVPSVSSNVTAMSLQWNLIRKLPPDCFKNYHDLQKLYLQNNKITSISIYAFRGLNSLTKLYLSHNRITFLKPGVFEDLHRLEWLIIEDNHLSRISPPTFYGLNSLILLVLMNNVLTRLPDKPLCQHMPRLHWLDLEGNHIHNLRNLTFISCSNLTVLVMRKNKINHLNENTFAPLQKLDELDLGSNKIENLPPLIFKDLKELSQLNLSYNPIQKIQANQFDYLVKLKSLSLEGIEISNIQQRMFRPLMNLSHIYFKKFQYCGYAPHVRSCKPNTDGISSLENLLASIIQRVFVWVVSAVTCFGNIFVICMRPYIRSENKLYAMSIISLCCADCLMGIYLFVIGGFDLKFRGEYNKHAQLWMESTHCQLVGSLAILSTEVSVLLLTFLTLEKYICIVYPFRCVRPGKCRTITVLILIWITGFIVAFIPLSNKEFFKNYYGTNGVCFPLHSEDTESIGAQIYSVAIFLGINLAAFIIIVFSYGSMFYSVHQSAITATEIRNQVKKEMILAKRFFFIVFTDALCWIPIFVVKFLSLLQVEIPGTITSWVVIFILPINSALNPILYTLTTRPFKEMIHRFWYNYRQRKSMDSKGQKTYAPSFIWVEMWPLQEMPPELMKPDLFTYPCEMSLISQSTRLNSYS
Type: cell-based
With `CCCCCCCCCCCCCCCC(=O)N[C@@H](CCC(=O)N[C@@H](CCC(=O)O)C(=O)N[C@@H](CCC(=O)O)C(=O)N[C@@H](CCC(=O)O)C(=O)N[C@@H](CCC(=O)O)C(=O)N1CCC[C@H]1C(=O)N[C@@H](CCC(=O)O)C(=O)N[C@@H](CCC(=O)O)C(=O)N[C@@H](CCC(=O)O)C(=O)N[C@@H](CCC(=O)O)C(=O)N1CCC[C@H]1C(=O)N[C@@H](CCC(=O)O)C(=O)N[C@@H](CCC(=O)O)C(=O)N[C@@H](CCC(=O)O)C(=O)N[C@@H](CCC(=O)O)C(=O)N1CCC[C@H]1C(=O)N[C@@H](CCC(=O)O)C(=O)N[C@@H](CCC(=O)O)C(=O)N[C@@H](CCC(=O)O)C(=O)N[C@@H](CCC(=O)O)C(=O)NCCON=C(C)c1ccc(C[C@H](N)C(=O)N[C@@H](CC(C)C)C(=O)N[C@@H](Cc2ccc(O)cc2)C(=O)N[C@@H](CO)C(=O)N[C@@H](C)C(=O)N[C@@H](CC(C)C)C(=O)N[C@@H](C)C(=O)N[C@@H](CC(N)=O)C(=O)N[C@@H](CCCCN)C(=O)N[C@H]2CSSC[C@@H]3NC(=O)CNC(=O)[C@H](C(C)C)NC(=O)[C@H](Cc4c[nH]cn4)NC(=O)[C@H](CSSC[C@H](NC(=O)[C@H](CC(C)C)NC(=O)[C@H](CCCCN)NC(=O)[C@@H](NC(=O)[C@@H](NC(=O)[C@H](CCC(=O)O)NC(=O)[C@H](CCC(=O)O)NC(=O)[C@H](CCSC)NC(=O)[C@H](Cc4c[nH]c5ccccc45)NC(=O)[C@H](CO)NC(=O)[C@H](C)N)C(C)C)[C@@H](C)CC)C(=O)NCC(=O)N[C@@H](CCCNC(=N)N)C(=O)N[C@@H](CCC(=O)O)C(=O)N[C@@H](CC(C)C)C(=O)N[C@@H](C(C)C)C(=O)N[C@@H](CCCNC(=N)N)C(=O)N[C@@H](C)C(=O)N[C@@H](CCC(N)=O)C(=O)N[C@@H]([C@@H](C)CC)C(=O)N[C@@H](C)C(=O)N[C@@H]([C@@H](C)CC)C(=O)N[C@H](C(=O)NCC(=O)N[C@@H](CCSC)C(=O)N[C@@H](CO)C(=O)N[C@H](C(=O)N[C@@H](Cc4c[nH]c5ccccc45)C(=O)N[C@@H](CO)C(=O)O)[C@@H](C)O)CSSC[C@@H](C(=O)O)NC(=O)[C@H](Cc4ccccc4)NC(=O)[C@H](CCCNC(=N)N)NC(=O)[C@H](C)NC(=O)[C@H](CC(C)C)NC(=O)[C@H](CO)NC(=O)[C@H](CCCNC(=N)N)NC(=O)[C@H](CCCCN)NC(=O)[C@H]([C@@H](C)O)NC3=O)NC2=O)cc1)C(=O)O` [AQ1-EEEEPEEEEPEEEEPEEEE-Glu^γ-C15-CH3] the pEC50 was 9.47.
With `CC[C@H](C)[C@@H]1NC(=O)[C@H](C)NC(=O)[C@H]([C@@H](C)CC)NC(=O)[C@H](CCC(N)=O)NC(=O)[C@H](C)NC(=O)[C@H](CCCNC(=N)N)NC(=O)[C@H](C(C)C)NC(=O)[C@H](CC(C)C)NC(=O)[C@H](CCC(=O)O)NC(=O)[C@H](CCCNC(=N)N)NC(=O)CNC(=O)[C@@H](NC(=O)[C@H](CC(C)C)NC(=O)[C@H](CCCCN)NC(=O)[C@@H](NC(=O)[C@@H](NC(=O)[C@H](CCC(=O)O)NC(=O)[C@H](CCC(=O)O)NC(=O)[C@H](CCSC)NC(=O)[C@H](Cc2c[nH]c3ccccc23)NC(=O)[C@H](CO)NC(=O)[C@H](C)N)C(C)C)[C@@H](C)CC)CSSC[C@@H]2NC(=O)[C@@H](NC(=O)[C@H](CCCCN)NC(=O)[C@H](CC(N)=O)NC(=O)[C@H](C)NC(=O)[C@H](CC(C)C)NC(=O)[C@H](C)NC(=O)[C@H](CO)NC(=O)[C@H](Cc3ccc(O)cc3)NC(=O)[C@H](CC(C)C)NC(=O)[C@@H](N)Cc3ccc(C(C)=NOCCNC(=O)[C@H](CCC(=O)O)NC(=O)CNC(=O)CNC(=O)CNC(=O)CNC(=O)[C@H](CO)NC(=O)[C@H](CCCCN)NC(=O)CC[C@H](NC(=O)CCCCCCCCCCCCC(=O)O)C(=O)O)cc3)CSSC[C@H](NC(=O)CNC(=O)[C@H](C(C)C)NC(=O)[C@H](Cc3c[nH]cn3)NC2=O)C(=O)N[C@@H]([C@@H](C)O)C(=O)N[C@@H](CCCCN)C(=O)N[C@@H](CCCNC(=N)N)C(=O)N[C@@H](CO)C(=O)N[C@@H](CC(C)C)C(=O)N[C@@H](C)C(=O)N[C@@H](CCCNC(=N)N)C(=O)N[C@@H](Cc2ccccc2)C(=O)N[C@H](C(=O)O)CSSC[C@@H](C(=O)NCC(=O)N[C@@H](CCSC)C(=O)N[C@@H](CO)C(=O)N[C@H](C(=O)N[C@@H](Cc2c[nH]c3ccccc23)C(=O)N[C@@H](CO)C(=O)O)[C@@H](C)O)NC1=O` [AQ1-EGGGGSK-Glu^γ-C13-COOH] the pEC50 was 9.51.
`CC[C@H](C)[C@@H]1NC(=O)[C@H](C)NC(=O)[C@H]([C@@H](C)CC)NC(=O)[C@H](CCC(N)=O)NC(=O)[C@H](C)NC(=O)[C@H](CCCNC(=N)N)NC(=O)[C@H](C(C)C)NC(=O)[C@H](CC(C)C)NC(=O)[C@H](CCC(=O)O)NC(=O)[C@H](CCCNC(=N)N)NC(=O)CNC(=O)[C@@H](NC(=O)[C@H](CC(C)C)NC(=O)[C@H](CCCCN)NC(=O)[C@@H](NC(=O)[C@@H](NC(=O)[C@H](CCC(=O)O)NC(=O)[C@H](CCC(=O)O)NC(=O)[C@H](CCSC)NC(=O)[C@H](Cc2c[nH]c3ccccc23)NC(=O)[C@H](CO)NC(=O)[C@H](C)N)C(C)C)[C@@H](C)CC)CSSC[C@@H]2NC(=O)[C@@H](NC(=O)[C@H](CCCCN)NC(=O)[C@H](CC(N)=O)NC(=O)[C@H](C)NC(=O)[C@H](CC(C)C)NC(=O)[C@H](C)NC(=O)[C@H](CO)NC(=O)[C@H](Cc3ccc(O)cc3)NC(=O)[C@H](CC(C)C)NC(=O)[C@@H](N)Cc3ccc(C(C)=NOCCNC(=O)[C@H](CCC(=O)O)NC(=O)CNC(=O)CNC(=O)[C@H](CO)NC(=O)CC[C@H](NC(=O)CCCCCCCCCCCCCC(=O)O)C(=O)O)cc3)CSSC[C@H](NC(=O)CNC(=O)[C@H](C(C)C)NC(=O)[C@H](Cc3c[nH]cn3)NC2=O)C(=O)N[C@@H]([C@@H](C)O)C(=O)N[C@@H](CCCCN)C(=O)N[C@@H](CCCNC(=N)N)C(=O)N[C@@H](CO)C(=O)N[C@@H](CC(C)C)C(=O)N[C@@H](C)C(=O)N[C@@H](CCCNC(=N)N)C(=O)N[C@@H](Cc2ccccc2)C(=O)N[C@H](C(=O)O)CSSC[C@@H](C(=O)NCC(=O)N[C@@H](CCSC)C(=O)N[C@@H](CO)C(=O)N[C@H](C(=O)N[C@@H](Cc2c[nH]c3ccccc23)C(=O)N[C@@H](CO)C(=O)O)[C@@H](C)O)NC1=O` [AQ1-EGGS-Glu^γ-C14-COOH] showed a pEC50 of 9.48.
